Reference: patent publication US11648310B2, “Combination of anti-FGFR4-antibody and bile acid sequestrant” (Daiichi Sankyo Europe GmbH, priority 2015, dated 2023)

Key:
cynomolgus monkeys [1] = details: cynomolgus monkey, in vivo
Excerpt: In order to find ort whether any toxic side effects of FGFR4 inhibition are due to elevated bile acid levels, the effect of co-administering agents which interfere with bile acid levels was examined. […] For reducing bile acid levels, the bile acid sequestrant colestyramine (Quantalan™) was used. Ursodeoxycholic acid (Ursofalk™) was used as a second compound for increasing the transport of bile acids out of the liver. Ursodeoxycholic acid is a hydrophilic bile acid that increases bile acid transporter expression and plasma membrane translocation in the liver, (palliative compounds 1 and 2). The study design included four cynomolgus monkeys (two male, two female) per group. The animals were assigned to the following groups [table] […] Duration and frequency: three administrations at 7-day interval (i.e. day 0, day 7 and day 14). The first day of dosing was designated as day 0. After the last administration, the animals were kept for a treatment-free period of at east 28 days. Method: intravenous injection (slow bolus) using a pump system and a microflex infusion set introduced into a vein after local disinfection with an aqueous solution of ethyl alcohol. After injection, the vein was flushed with sterile physiological saline. Volume administered: 9.52 mL/kg/day. Individual dose volumes were calculated using the latest body weight. Palliative Compounds and Vehicle Route: oral. Frequency: twice daily at 8 hours±1 hour apart. Duration: each day from day 0 to the last day of treatment-free period, i.e. at least 41 days of administrations. Method: naso-gastric intubation (animals are trained to this administration rotate five days before the start of treatment). […] Individual dose volumes were calculated using the latest body weight. […] FGF19 serum levels were determined using quantiquine human FGF19 ELISA from RND according to the manufacturer's instructions. RNA expression of cyno liver and ileum samples for Cyp7A1 (liver) and FGF19 (Ileum) were determined using the High-Capacity RNA-to-cDNA Kit (Applied Biosystems/Life Technologies) followed by subsequent quantitative real-time PCR.

cynomolgus monkeys [2] = details: cynomolgus monkey, in vivo; remark: listed apart in the source
Excerpt: In order to find ort whether any toxic side effects of FGFR4 inhibition are due to elevated bile acid levels, the effect of co-administering agents which interfere with bile acid levels was examined. […] For reducing bile acid levels, the bile acid sequestrant colestyramine (Quantalan™) was used. Ursodeoxycholic acid (Ursofalk™) was used as a second compound for increasing the transport of bile acids out of the liver. Ursodeoxycholic acid is a hydrophilic bile acid that increases bile acid transporter expression and plasma membrane translocation in the liver, (palliative compounds 1 and 2).
The study design included four cynomolgus monkeys (two male, two female) per group. The animals were assigned to the following groups
Duration and frequency: three administrations at 7-day interval (i.e. day 0, day 7 and day 14). The first day of dosing was designated as day 0. […]
The test animals were examined for clinical signs, liver enzymes, bile acid levels and FGF19. FGF19 serum levels were determined using quantiquine human FGF19 ELISA from RND according to the manufacturer's instructions. RNA expression of cyno liver and ileum samples for Cyp7A1 (liver) and FGF19 (Ileum) were determined using the High-Capacity RNA-to-cDNA Kit (Applied Biosystems/Life Technologies) followed by subsequent quantitative real-time PCR. […]

## colestyramine [Quantalan™, reference compound]
Cynomolgus monkeys [1]
  Alanine aminotransferase activity: within the normal range
  Bile acid concentration: within the normal range
  Reversibility of the aspartate aminotransferase effect: reversible
Cynomolgus monkeys [2]
  Histopathological changes: no histopathological changes
